Assay results from US9938562B2, “Naphthalene derived chromogenic enzyme substrates” (Glycosynth Limited, priority 2013, dated 2018).
Read-outs that look alike come from different tables or passages of the source.

How the values were obtained:
Format in all cases: cell-based
E. cloacae = test: Glucuronide screen, agar plates (CPS ID 3 or Columbia agar)
[1] = system: clinical isolates of E. coli; test: Glucuronide sensitivity screen, agar plates (CPS ID 3 or Columbia agar)
E. faecalis NCTC 775 = test: Glucuronide screen, agar plates (CPS ID 3 or Columbia agar); conditions: E. faecalis NCTC 775, agar
E. faecium NCTC 7171 = test: as above; conditions: E. faecium NCTC 7171, agar
[2] = 100 E. coli strains, agar, 18 h incubation

Q: With `NC1CCCCC1.O=C(O)[C@H]1O[C@@H](Oc2c[nH]c3ccc(Br)c(Cl)c23)[C@H](O)[C@@H](O)[C@@H]1O` [X-β-D-glucuronide CHA salt] as the compound, how does the Colour (E. cloacae; E. cloacae 260329R, agar) read?
A: −

Q: What about the Colour (E. cloacae; E. cloacae NCTC 11936, agar) of the same compound?
A: −

Q: And the “% Sensitivity” value [1]?
A: 79%

Q: What about the Colour [1] of the same compound?
A: −

Q: What about the Negative strains [1, 2] of the same compound?
A: 21

Q: What about the Positive strains [1, 2] of the same compound?
A: 79

Q: And the Colour ([1]; E. coli 260262P, agar)?
A: Green

Q: What about the Colour ([1]; E. coli 260280Z, agar) of the same compound?
A: Green

Q: What about the Colour ([1]; E. coli 260310H, agar) of the same compound?
A: Green

Q: What about the Colour ([1]; E. coli 260313A, agar) of the same compound?
A: −

Q: What about the Colour ([1]; E. coli 260316T, agar) of the same compound?
A: −

Q: What about the Colour ([1]; E. coli 260327V, agar) of the same compound?
A: Green

Q: What about the Colour ([1]; E. coli 260330Y, agar) of the same compound?
A: Green

Q: And the Colour ([1]; E. coli 260333P, agar)?
A: −

Q: What about the Colour ([1]; E. coli 260345F, agar) of the same compound?
A: Green

Q: What about the Colour ([1]; E. coli 260348K, agar) of the same compound?
A: Green

Q: What about the Colour ([1]; E. coli 260354W, agar) of the same compound?
A: Green

Q: And the Colour ([1]; E. coli 260364H, agar)?
A: −

Q: What about the Colour ([1]; E. coli 260370C, agar) of the same compound?
A: Green

Q: What about the Colour ([1]; E. coli 260375E, agar) of the same compound?
A: Green

Q: What about the Colour ([1]; E. coli 260390B, agar) of the same compound?
A: −

Q: What about the Colour ([1]; E. coli 260396Z, agar) of the same compound?
A: Green

Q: What about the Colour ([1]; E. coli 260398Q, agar) of the same compound?
A: Green

Q: What about the Colour ([1]; E. coli 260399E, agar) of the same compound?
A: Green

Q: What about the Colour ([1]; E. coli 260400N, agar) of the same compound?
A: −

Q: And the Colour ([1]; E. coli 260401Q, agar)?
A: Green

Q: What about the Colour ([1]; E. coli 260402H, agar) of the same compound?
A: Green

Q: What about the Colour ([1]; E. coli 260404W, agar) of the same compound?
A: Green

Q: And the Colour ([1]; E. coli 260405P, agar)?
A: Green

Q: What about the Colour ([1]; E. coli 260406A, agar) of the same compound?
A: −

Q: And the Colour ([1]; E. coli 260406Y, agar)?
A: Green

Q: And the Colour ([1]; E. coli 260407F, agar)?
A: Green

Q: And the Colour ([1]; E. coli 260408C, agar)?
A: Green

Q: What about the Colour ([1]; E. coli 260411Z, agar) of the same compound?
A: Green

Q: What about the Colour ([1]; E. coli 260412Q, agar) of the same compound?
A: Green

Q: What about the Colour ([1]; E. coli 260414H, agar) of the same compound?
A: Green

Q: What about the Colour ([1]; E. coli 260415Y, agar) of the same compound?
A: Green

Q: What about the Colour ([1]; E. coli 260416W, agar) of the same compound?
A: −

Q: And the Colour ([1]; E. coli 260417P, agar)?
A: Green

Q: And the Colour ([1]; E. coli 260422Y, agar)?
A: Green

Q: And the Colour ([1]; E. coli 260424P, agar)?
A: Green

Q: And the Colour ([1]; E. coli 260425A, agar)?
A: Green

Q: What about the Colour ([1]; E. coli 260426F, agar) of the same compound?
A: Green

Q: What about the Colour ([1]; E. coli 260428T, agar) of the same compound?
A: Green

Q: And the Colour ([1]; E. coli 260431N, agar)?
A: Green

Q: What about the Colour ([1]; E. coli 260432E, agar) of the same compound?
A: Green

Q: What about the Colour ([1]; E. coli 260433H, agar) of the same compound?
A: Green

Q: And the Colour ([1]; E. coli 260434Y, agar)?
A: Green

Q: What about the Colour ([1]; E. coli 260435W, agar) of the same compound?
A: Green

Q: And the Colour ([1]; E. coli 260436P, agar)?
A: Green

Q: And the Colour ([1]; E. coli 260437A, agar)?
A: −

Q: What about the Colour ([1]; E. coli 260438F, agar) of the same compound?
A: Green

Q: And the Colour ([1]; E. coli 260439C, agar)?
A: Green

Q: What about the Colour ([1]; E. coli 260440S, agar) of the same compound?
A: Green

Q: What about the Colour ([1]; E. coli 260441G, agar) of the same compound?
A: Green

Q: And the Colour ([1]; E. coli 260458Y, agar)?
A: Green

Q: What about the Colour ([1]; E. coli 260459W, agar) of the same compound?
A: Green

Q: What about the Colour ([1]; E. coli 260463D, agar) of the same compound?
A: Green

Q: What about the Colour ([1]; E. coli 260464G, agar) of the same compound?
A: Green

Q: And the Colour ([1]; E. coli 260471B, agar)?
A: −

Q: And the Colour ([1]; E. coli 260478N, agar)?
A: −

Q: And the Colour ([1]; E. coli 260479Q, agar)?
A: Green

Q: What about the Colour ([1]; E. coli 260480M, agar) of the same compound?
A: Green

Q: What about the Colour ([1]; E. coli 260481J, agar) of the same compound?
A: Green

Q: What about the Colour ([1]; E. coli 260483R, agar) of the same compound?
A: −

Q: What about the Colour ([1]; E. coli 260485D, agar) of the same compound?
A: Green

Q: What about the Colour ([1]; E. coli 260486L, agar) of the same compound?
A: Green

Q: And the Colour ([1]; E. coli 260492J, agar)?
A: Green

Q: What about the Colour ([1]; E. coli 260494B, agar) of the same compound?
A: Green

Q: And the Colour ([1]; E. coli 260495R, agar)?
A: −

Q: And the Colour ([1]; E. coli 260497D, agar)?
A: Green

Q: And the Colour ([1]; E. coli 260502G, agar)?
A: Green

Q: And the Colour ([1]; E. coli 260503Z, agar)?
A: Green

Q: What about the Colour ([1]; E. coli 260504N, agar) of the same compound?
A: Green

Q: What about the Colour ([1]; E. coli 260505Q, agar) of the same compound?
A: −

Q: And the Colour ([1]; E. coli 260506E, agar)?
A: Green

Q: What about the Colour ([1]; E. coli 260508Y, agar) of the same compound?
A: Green

Q: What about the Colour ([1]; E. coli 260509W, agar) of the same compound?
A: Green

Q: And the Colour ([1]; E. coli 260510R, agar)?
A: Green

Q: What about the Colour ([1]; E. coli 260511X, agar) of the same compound?
A: Green

Q: And the Colour ([1]; E. coli 260514G, agar)?
A: −

Q: And the Colour ([1]; E. coli 260515Z, agar)?
A: −

Q: What about the Colour ([1]; E. coli 260521S, agar) of the same compound?
A: Green

Q: What about the Colour ([1]; E. coli 260522Z, agar) of the same compound?
A: Green

Q: And the Colour ([1]; E. coli 260532S, agar)?
A: Green

Q: What about the Colour ([1]; E. coli 260533G, agar) of the same compound?
A: Green

Q: And the Colour ([1]; E. coli 260536Q, agar)?
A: Green

Q: What about the Colour ([1]; E. coli 260537E, agar) of the same compound?
A: −

Q: And the Colour ([1]; E. coli 260538H, agar)?
A: −

Q: And the Colour ([1]; E. coli 260539Y, agar)?
A: Green

Q: What about the Colour ([1]; E. coli 260541R, agar) of the same compound?
A: Green

Q: What about the Colour ([1]; E. coli 260545G, agar) of the same compound?
A: Green

Q: And the Colour ([1]; E. coli 260547N, agar)?
A: Green

Q: And the Colour ([1]; E. coli 260548Q, agar)?
A: Green

Q: And the Colour ([1]; E. coli 260549E, agar)?
A: Green

Q: What about the Colour ([1]; E. coli 260553X, agar) of the same compound?
A: −

Q: What about the Colour ([1]; E. coli 260554D, agar) of the same compound?
A: Green

Q: And the Colour ([1]; E. coli 260555L, agar)?
A: Green

Q: And the Colour ([1]; E. coli 260563B, agar)?
A: Green

Q: What about the Colour ([1]; E. coli 260564R, agar) of the same compound?
A: Green

Q: What about the Colour ([1]; E. coli 260578D, agar) of the same compound?
A: −

Q: And the Colour ([1]; E. coli 2603121P, agar)?
A: −

Q: What about the Colour (E. faecalis NCTC 775) of the same compound?
A: −

Q: And the Colour (E. faecium NCTC 7171)?
A: −
